# Data from article PMC5651866, “Halogenated Chrysins Inhibit Dengue and Zika Virus Infectivity” (Scientific Reports, 2017).
# Columns and labels:
# [1] = Cytotoxicity study (CellTiter 96 AQueous One) in LLC/MK2 cells; format: cell-based; conditions: rhesus monkey, LLC/MK2 cells
# Method: (§1) The cytotoxicity of active compounds was tested on LLC-MK2, Vero, THP-1, HEK-293, HepG2 and C6/36 cell lines. Each cell line was seeded at 1 × 10^4 cells per well in 96-well plates and incubated overnight. The compounds were added at the indicated concentrations and the cells were incubated for 48 h, unless indicated otherwise. Cell viability was analyzed using CellTiter 96® AQueous One Solution Cell Proliferation Assay kit (Promega, Wisconsin-Madison, USA) according to manufacturer’s protocol. The plate was read at the A 450 in a VICTORTM × 3 microplate reader (PerkinElmer, Massachusetts, USA). Percent cell viability in compound-treated wells was calculated using reference DMSO-treated cells as a 100% cell viability control. The CC50 values of LLC/MK2 cells were calculated using nonlinear regression analysis. Results were reported as means and standard error of the means (SEM) of CC50 values of three independent experiments in which each drug concentration was tested in triplicate.
# LLC/MK2 cells = test: as above; format: cell-based; conditions: LLC/MK2 cell viability at 120 h versus 48 h; in words
# Method: as §1
# [2] = Cytotoxicity study (CellTiter 96 AQueous One) in THP-1 cells; format: cell-based; conditions: human, THP-1 cells, read-out: Cells viability (%, means ± SEM) THP-1
# Method: as §1
# [3] = Cytotoxicity study (CellTiter 96 AQueous One) in HepG2 cells; format: cell-based; conditions: human, HepG2 cells, read-out: Cells viability (%, means ± SEM) HepG2
# Method: as §1
# [4] = Cytotoxicity study (CellTiter 96 AQueous One) in HEK-293 cells; format: cell-based; conditions: human, HEK-293 cells, read-out: Cells viability (%, means ± SEM) HEK-293
# Method: as §1
# DENV2 (NGC) = test: Antiviral efficacy (EC50) in virus infected LLC/MK2 cells, plaque assay; format: cell-based, Dengue virus
# Method: (§2) Compound at various concentrations were added to virus infected LLC/MK2 cells and viral titers were accessed by plaque titration of supernatants as previously described.
# (§3) LLC/MK2 cells were seeded at 5 × 10^4 cells into each well of 24-well plate and incubated overnight at 37 °C under 5% CO2. Cells were infected with DENV2 at the multiplicity of infection (M.O.I.) of 0.1, unless indicated otherwise, for 1 h with gentle rocking every 15 min. Cells were washed with phosphate buffer saline (PBS) and incubated with 1 ml of MEM medium supplemented with 1% FBS as previously described. The compounds were prepared in dimethylsulfoxide (DMSO) at the indicated concentrations before addition to viral infected cells. Supernatants were collected after 5 day incubation and analyzed by plaque titration[9].
# (§4) Compounds were prepared in DMSO at 8–12 different concentrations and added to virus infected cells as previously described. Supernatants were collected and the EC50 values were calculated from nonlinear regression analysis.
# DENV4 (c0036) = test: as above; format: cell-based, Dengue virus
# Method: as §2, §3, §4
# ZIKV (SV0010/15) = test: as above; format: cell-based, Zika virus
# Method: as §2, §3, §4
# DENV2 = test: Attachment inhibition study, DENV2 with LLC/MK2 cells; format: cell-based, Dengue virus; conditions: 10 µM
# Method: We further explored whether the compound would block the viral infectivity by neutralization. We set up the attachment inhibition assay by incubating DENV2 with LLC/MK2 cells at 4 °C for 1 h and FV13 was added before adsorption (pre-attachment), simultaneous with adsorption (co-attachment), and after adsorption (post-attachment) (Fig. 5A). DMSO was used as a mock treatment and added in parallel to FV13 to the experiment. Cells were incubated until cytopathic effects appeared under microscope (Fig. 5B). Supernatants and cells were then analyzed by plaque titration (Fig. 5C) and RT-qPCR (Fig. 5D), respectively. […] Therefore, the major targets of FV13 inhibition appear to function after attachment, possibly at the fusion or translation steps. […] (Supplementary 1). Therefore, fusion was unlikely the major target of FV13. We concluded that one of the major targets of FV13 functions early after infection and attachment and fusion are not critically affected. Flavivirus translation initiates within 1 to 5 hpi[26].
# After supernatant collection, the remaining cells in experimental plates were extracted for viral RNAs using TRIzol reagent (Invitrogen, California, USA) according to the manufacturer’s protocol. The samples were loaded into the Direct-zol™ RNA MiniPrep (Zymo research, California, USA) and quantified by Nanodrop spectrophotometry (Eppendorf, New York, USA). The RT-qPCR was performed with a Step-OnePlus Real-Time PCR System (Applied Biosystems, California, USA.) with 1 × Power SYBRGreen PCR Master Mix, 400 nM each of capsid primers[40] or 250 nM of NS1 primers[41] and 0.1 µg of total RNA. The reactions were then cycled at 48 °C 30 min and 95 °C 10 min, followed by 45 cycles of 95 °C for 20 s (denaturation), 55 °C for 30 s (annealing), 72 °C for 30 s (extension). Each sample was analyzed in triplicated and results were confirmed by two independent experiments.
# The attachment assay was adapted from Lani et al., 2016 and Jin et al., 2015 [42],[43]. Briefly, LLC/MK2 cells were seeded in 24-well plates and incubated as previously described. […]
# [5] = Viability of DENV2/BHK-21 replicon cells; format: cell-based; conditions: hamster, 5 and 10 µM, read-out: viable replicon cells
# Method: Next, we studied FV13 inhibition in a DENV2 replicon replication system to investigate whether translation and replication could be implicated as drug targets. BHK-21/DENV2 replicon cells[28] were treated with 5 and 10 µM FV13 and incubated for 72 h before measuring replication efficiency by quantifying replicon RNA. Ribavirin, a known dengue virus replication inhibitor[29], was used as a positive control.
# Figure 6 Replicon inhibition study. (A) DENV2/BHK-21 replicon cells were treated with FV13 or ribavirin for 72 h. Percent inhibition was calculated from RT-qPCR of extracted RNA. Error bars represented standard error of means (SEM) from two independent experiments with triplicate samples. Asterisks indicated statistical significance in paired t-test as follows; *p-value < 0.05, **p-value < 0.01, ***p-value < 0.001 compared to 1% DMSO negative control. (B) Percent DENV2/BHK-21 replicon cell viability at 72 h under 5 and 10 µM FV13 treatment. Error bars represented standard error of means (SEM) from three independent experiments, in which each experiment was performed in triplicate.
# DENV2 NS2B/3 protease = target: T1, DENV2 NS2B/3 protease (Dengue virus type 2, UniProt P14340); test: In vitro protease assay; format: biochemical; conditions: in words
# T1 construct: DENV2 NS2BH-(QR)-NS3pro enzyme3
# T1 sequence (P14340 1398-1437): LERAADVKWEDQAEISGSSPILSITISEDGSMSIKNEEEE
# T1 sequence (P14340 1476-1653): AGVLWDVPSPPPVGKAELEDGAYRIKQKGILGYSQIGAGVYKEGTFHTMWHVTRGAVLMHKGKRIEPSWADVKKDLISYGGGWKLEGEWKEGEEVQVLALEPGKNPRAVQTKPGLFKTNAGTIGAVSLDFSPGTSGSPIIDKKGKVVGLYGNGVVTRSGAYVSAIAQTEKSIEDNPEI
# Method: Assays were performed in triplicate in a 96-well half area black plate
# (Greiner Bio-One, Monroe, NC, USA). The reaction mixture (100 μl) contained
# 200 mM Tris-HCl, pH 9.5, 30% glycerol, 0.1% CHAPS, 1% DMSO, 50 nM
# DENV2 NS2BH-(QR)-NS3pro enzyme3, 10 µM fluorogenic tetrapeptide
# substrate, Bz-Nle-Lys-Arg-Arg-AMC, and designated concentrations of
# compounds in DMSO (concentration of 1%). The compound-enzyme mixture
# was pre-incubated for 15 min at room temperature before addition of the
# substrate. The reaction was continued at 37 οC for 30 min. The release of AMC
# from the substrate was recorded every 1.5 min at 380 nm excitation and 460 nm
# emission in a SpectraMax Gemini EM spectrofluorometer (Molecular Devices,
# Sunnyvale, CA). DMSO alone (concentration of 1%) was used as the no-inhibitor
# control (100% protease activity) and the bovine pancreatic trypsin inhibitor
# protease, was used at 5 µM in DMSO concentration of 1% as a positive control
# (0% protease activity). Data were plotted and reported as percent inhibition of
# each compound to protease activity.
# The in vitro enzymatic protease assay. Compounds were prepared three
# concentrations and mixed with protein, added substrate (Bz)-Nle-Arg-arg-AMC
# and measured at 460 nm with an excitation at 380 nm.
compound,measurement,setting,value
"O=c1cc(-c2ccccc2)oc2c(Br)c(O)c(Br)c(O)c12 [FV13, 6,8-dibromo-5,7-dihydroxyflavone]","viability at 48 h, 10 µM","[1]; 10 μM, 48 h, read-out: Cells viability (%, means ± SEM) LLC/MK2",81 ± 2.69%
same,"viability at 48 h, 25 µM","[1]; 25 μM, 48 h, read-out: Cells viability (%, means ± SEM) LLC/MK2",59.4 ± 2.42%
same,CC50 at 48 h,"[1]; 48 h incubation, read-out: CC50 (cytotoxic concentration)",44300 ± 2900 nM
same,effect of long term incubation on cytotoxicity,LLC/MK2 cells,similarly non-toxic at both 48 and 120 h
same,"viability at 48 h, 10 µM",[2]; 10 μM,> 100%
same,"viability at 48 h, 25 µM",[2]; 25 μM,86.9 ± 2.1%
same,"viability at 48 h, 10 µM",[3]; 10 μM,85.8 ± 4.7%
same,"viability at 48 h, 25 µM",[3]; 25 μM,84.6 ± 2.79%
same,"viability at 48 h, 10 µM",[4]; 10 μM,98.1 ± 0.72%
same,"viability at 48 h, 25 µM",[4]; 25 μM,89.4 ± 5.6%
same,S.I. Selectivity index (CC50/EC50),"DENV2 (NGC); DENV2 (NGC), CC50 in LLC/MK2",30.43
same,EC50,"DENV2 (NGC); Dengue virus, DENV2, LLC-MK2",1470 ± 860 nM
same,S.I. Selectivity index (CC50/EC50),"DENV4 (c0036); DENV4 (c0036), CC50 in LLC/MK2",25.12
same,EC50,"DENV4 (c0036); Dengue virus, DENV4, LLC-MK2",1780 ± 720 nM
same,S.I. Selectivity index (CC50/EC50),ZIKV (SV0010/15); CC50 in LLC/MK2,27.02
same,EC50,"ZIKV (SV0010/15); Zika virus, LLC/MK2, plaque assay in 24-well plates",1650 ± 860 nM
same,viral RNA reduction,"DENV2; post-attachment, intracellular RNA, RT-qPCR",64.07 ± 3.37%
same,plaque titer reduction,"DENV2; post-attachment, supernatants, 2 days",40.59 ± 2.83%
same,interference with pre- or co-attachment steps,"DENV2; pre-attachment and co-attachment, in words",did not interfere with either pre- or co-attachment steps
same,viability at 72 h,[5],> 99%
same,targeting of DENV2 protease in the in vitro protease assay,DENV2 NS2B/3 protease,did not target DENV2 protease
